Where two headings read alike, the source gives them in different places.
Assays:
[1] = molecular target: T1, IGF 3P (Homo sapiens, UniProt P08069); experiment: IGF1R kinase assay (LCCA), IGF 3P; format: biochemical
T1 construct: human IGF1R kinase domain residues M954-C1367; made in house; host or cells: baculovirus expression (insect cells)
Outline: (§1)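 Read-out is percent ATP remaining, detected by luciferase-luciferin luminescence after a 2 h ambient reaction. Reaction contained 4 nM IGF1R kinase domain (residues M954-C1367, baculovirus-made), 3 μM ATP (near KM), 4 μM poly EY, pH 7.5 with Mg2+/Mn2+. Ten inhibitor concentrations; IC50 by Hill-type curve fit.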

[2] = molecular target: T2, (Homo sapiens, UniProt P08069); experiment: IGF1R kinase assay (LCCA), IGF 0P; format: biochemical
T2 construct: human IGF1R kinase domain residues M954-C1367; made in house; host or cells: baculovirus expression (insect cells)
Outline: as §1

T1 sequence (P08069 954-1367): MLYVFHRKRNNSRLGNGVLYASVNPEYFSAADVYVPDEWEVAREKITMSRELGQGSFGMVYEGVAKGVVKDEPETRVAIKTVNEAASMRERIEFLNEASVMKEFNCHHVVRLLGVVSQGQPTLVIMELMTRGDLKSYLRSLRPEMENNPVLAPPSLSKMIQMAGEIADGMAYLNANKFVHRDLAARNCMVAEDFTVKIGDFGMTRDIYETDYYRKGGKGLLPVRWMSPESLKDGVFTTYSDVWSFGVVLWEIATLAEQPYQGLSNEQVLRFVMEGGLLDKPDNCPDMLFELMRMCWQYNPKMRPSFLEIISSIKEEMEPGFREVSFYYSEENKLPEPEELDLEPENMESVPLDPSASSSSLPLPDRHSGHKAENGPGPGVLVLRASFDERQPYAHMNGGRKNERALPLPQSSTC
T2 sequence (P08069 954-1367): as above

| IC50 ([1]; IGF1R kinase LCCA assay) [µM] | IC50 ([2]; IGF1R kinase LCCA assay) [µM] | IC50 [1] [µM] | IC50 [2] [µM] | Compound | also measured |
| --- | --- | --- | --- | --- | --- |
| 0.05 to 0.5 | 0.5 to 5 | – | – | Cc1cc(Nc2cc(C3CC3)n[nH]2)nc(Nc2ccc(CCN)cc2)n1 [Example 550] | – |
| 0.05 to 0.5 | 0.5 to 5 | – | – | Cc1cc(Nc2cc(C3CC3)n[nH]2)nc(Nc2ccc(CCN3CCCC3)cc2)n1 [Example 551] | – |
| 0.5 to 5 | 0.5 to 5 | – | – | Cc1cc(Nc2cc(C3CC3)n[nH]2)nc(Nc2ccc(C3CCNCC3)cc2)n1 [Example 553] | – |
| 0.5 to 5 | 0.5 to 5 | – | – | Cc1cc(Nc2cc(C3CC3)n[nH]2)nc(Nc2ccc(CCN3CCCCC3)cc2)n1 [Example 554] | – |
| 0.5 to 5 | 0.5 to 5 | – | – | Cc1cc(Nc2cc(C3CC3)[nH]n2)nc(NCc2cc(C(=O)N3CCN(C)CC3)no2)n1 [Example 555] | – |
| 0.5 to 5 | 0.5 to 5 | – | – | Cc1cc(Nc2cc(C3CC3)n[nH]2)nc(Nc2ccc(CCN3CCOCC3)cc2)n1 [Example 556] | – |
| – | – | – | – | CC(C)c1cc(CNc2nc(Nc3cc(C4CC4)[nH]n3)cc(N3CCN[C@H](C)C3)n2)on1 [Example 557] | IC50 ([1]; IGF1R kinase LCCA assay, IGF 3P): < 0.05 µM; IC50 ([2]; IGF1R kinase LCCA assay, IGF 0P): 0.05 to 0.5 µM |
| < 0.05 | 0.05 to 0.5 | – | – | CC(C)c1cc(CNc2nc(NCCN3CCN(C)CC3)cc(Nc3cc(C(C)C)[nH]n3)n2)on1 [Example 558] | – |
| < 0.05 | 0.5 to 5 | – | – | CC(C)c1cc(CNc2nc(NCCN3CCN(C)CC3)cc(Nc3cc(C4CC4)[nH]n3)n2)on1 [Example 559] | – |
| 0.05 to 0.5 | 0.05 to 0.5 | – | – | c1ccc(-c2cc(CNc3nc(CN4CCOCC4)cc(Nc4cc(C5CC5)[nH]n4)n3)on2)cc1 [Example 561] | – |
| 0.5 to 5 | 0.5 to 5 | – | – | Cc1cc(Nc2cc(C3CC3)[nH]n2)nc(NCc2ccc(-c3ccc(Cl)cc3)s2)n1 [Example 562] | – |
| 0.5 to 5 | 0.5 to 5 | – | – | Cc1cc(Nc2cc(C3CC3)[nH]n2)nc(NCc2ccco2)n1 [Example 563] | – |
| 0.5 to 5 | 0.5 to 5 | – | – | Cc1cc(Nc2cc(C3CC3)n[nH]2)nc(Nc2ccc3c(c2)CN(C(=O)OC(C)(C)C)CC3)n1 [Example 565] | – |
| 0.5 to 5 | 0.5 to 5 | – | – | Cc1cc(Nc2cc(C3CC3)n[nH]2)nc(Nc2ccc(C3CCN(C(=O)OC(C)(C)C)CC3)cc2)n1 [Example 566] | – |
| 0.5 to 5 | 0.5 to 5 | – | – | Cc1cc(Nc2ccccc2)nc(Nc2ccc(N3CCOCC3)cc2)n1 [Example 567] | – |
| 0.5 to 5 | 0.5 to 5 | – | – | Cc1cc(Nc2cc(C3CC3)n[nH]2)nc(Nc2ccc(CCNC(=O)OC(C)(C)C)cc2)n1 [Example 568] | – |
| 0.5 to 5 | 0.5 to 5 | – | – | Cc1cc(Nc2cc(C3CC3)n[nH]2)nc(Nc2ccc(N3CCN(C)CC3)cc2)n1 [Example 569] | – |
| 0.5 to 5 | 0.5 to 5 | – | – | Cc1cc(Nc2cc(C3CC3)n[nH]2)nc(NCc2nc(C(=O)NCCc3cccc(Cl)c3)cs2)n1 [Example 570] | – |
| 0.5 to 5 | 0.5 to 5 | – | – | Cc1cc(Nc2cc(C3CC3)n[nH]2)nc(NCc2nc(C(=O)NCCc3ccccc3F)cs2)n1 [Example 571] | – |
| 0.5 to 5 | 0.5 to 5 | – | – | Cc1cc(Nc2cc(C3CC3)[nH]n2)nc(NC(c2ccccc2)c2nc(-c3ccccc3)co2)n1 (centres unmarked) [Example 572] | – |

| IC50 ([1]; IGF1R kinase LCCA assay) [µM] | IC50 ([2]; IGF1R kinase LCCA assay) [µM] | IC50 [1] [µM] | IC50 [2] [µM] | Compound | also measured |
| --- | --- | --- | --- | --- | --- |
| – | – | 0.5 to 5 | 0.05 to 0.5 | Cc1cc(Nc2cc(C3CC3)[nH]n2)nc(OCc2cc(-c3ccccc3)no2)n1 [Example 584, N-(5-cyclopropyl-1H-pyrazol-3-yl)-6-methyl-2-{[(3-phenylisoxazol-5-yl)methyl]oxy}pyrimidin-4-amine] | – |
| – | – | < 0.05 | 0.5 to 5 | CC(C)c1cc(CNc2nc(Nc3cc(C(C)C)[nH]n3)cc(OCCN3CCOCC3)n2)on1 [Example 587, N-{[3-(1-methylethyl)isoxazol-5-yl]methyl}-N^4-[5-(1-methylethyl)-1H-pyrazol-3-yl]-6-[(2-morpholin-4-ylethyl)oxy]pyrimidine-2,4-diamine] | – |
| – | – | < 0.05 | 0.05 to 0.5 | CC(C)c1cc(Nc2cc(OCCN3CCOCC3)nc(NCc3cc(-c4ccccc4)no3)n2)n[nH]1 [Example 588, N^4-[5-(1-methylethyl)-1H-pyrazol-3-yl]-6-[(2-morpholin-4-ylethyl)oxy]-N^2-[(3-phenylisoxazol-5-yl)methyl]pyrimidine-2,4-diamine] | – |
| – | – | < 0.05 | 0.05 to 0.5 | CC(C)c1cc(Nc2cc(OCCN3CCCCC3)nc(NCc3cc(-c4ccccc4)no3)n2)[nH]n1 [Example 589, N^4-[3-(1-methylethyl)-1H-pyrazol-5-yl]-N^2-[(3-phenylisoxazol-5-yl)methyl]-6-[(2-piperidin-1-ylethyl)oxy]pyrimidine-2,4-diamine] | – |
| – | – | < 0.05 | 0.05 to 0.5 | CC(C)c1cc(Nc2cc(N3CCN[C@@H](C)C3)nc(NCc3cc(-c4ccccc4)no3)n2)n[nH]1 [Example 591, N^4-[5-(1-methylethyl)-1H-pyrazol-3-yl]-6-[(3S)-3-methylpiperazin-1-yl]-N^2-[(3-phenylisoxazol-5-yl)methyl]pyrimidine-2,4-diamine] | – |
| – | – | < 0.05 | 0.05 to 0.5 | CCN(CC)CCNc1cc(Nc2cc(C(C)C)[nH]n2)nc(NCc2cc(-c3ccccc3)no2)n1 [Example 592, N^4-[2-(diethylamino)ethyl]-N^6-[5-(1-methylethyl)-1H-pyrazol-3-yl]-N^2-[(3-phenylisoxazol-5-yl)methyl]pyrimidine-2,4,6-triamine] | – |
| – | – | < 0.05 | 0.5 to 5 | CC(C)c1cc(CNc2nc(Nc3cc(C4CC4)[nH]n3)cc(OCCN3CCOCC3)n2)on1 [Example 594, N^4-(5-cyclopropyl-1H-pyrazol-3-yl)-N^2-{[3-(1-methylethyl)isoxazol-5-yl]methyl}-6-[(2-morpholin-4-ylethyl)oxy]pyrimidine-2,4-diamine] | – |
| – | – | < 0.05 | 0.05 to 0.5 | CC(C)c1cc(Nc2cc(OCCN3CCCCC3)nc(NCc3cc(C(C)C)no3)n2)[nH]n1 [Example 595, N^2-{[3-(1-methylethyl)isoxazol-5-yl]methyl}-N^4-[3-(1-methylethyl)-1H-pyrazol-5-yl]-6-[(2-piperidin-1-ylethyl)oxy]pyrimidine-2,4-diamine] | – |
| – | – | < 0.05 | 0.05 to 0.5 | CC(C)c1cc(CNc2nc(Nc3cc(C4CC4)n[nH]3)cc(OCCN3CCCCC3)n2)on1 [Example 597, N^4-(3-cyclopropyl-1H-pyrazol-5-yl)-N^2-{[3-(1-methylethyl)isoxazol-5-yl]methyl}-6-[(2-piperidin-1-ylethyl)oxy]pyrimidine-2,4-diamine] | – |
| – | – | 0.05 to 0.5 | 0.05 to 0.5 | Cc1cc(CNc2nc(C)cc(Nc3cc(C4CC4)n[nH]3)n2)on1 [Example 600, N^4-(3-cyclopropyl-1H-pyrazol-5-yl)-6-methyl-N^2-[(3-methylisoxazol-5-yl)methyl]pyrimidine-2,4-diamine] | – |
| – | – | < 0.05 | 0.05 to 0.5 | Cc1cc(CNc2nc(Nc3cc(C4CC4)n[nH]3)cc(N3CCOCC3)n2)on1 [Example 601, N^4-(3-cyclopropyl-1H-pyrazol-5-yl)-N^2-[(3-methylisoxazol-5-yl)methyl]-6-morpholin-4-ylpyrimidine-2,4-diamine] | – |
| – | – | < 0.05 | 0.05 to 0.5 | Cc1cc(CNc2nc(Nc3cc(C4CC4)n[nH]3)cc(N3CCN(C)CC3)n2)on1 [Example 602, N^4-(3-cyclopropyl-1H-pyrazol-5-yl)-N^2-[(3-methylisoxazol-5-yl)methyl]-6-(4-methylpiperazin-1-yl)pyrimidine-2,4-diamine] | – |
| – | – | < 0.05 | 0.05 to 0.5 | Fc1ccc(-c2cc(CNc3nc(Nc4cc(C5CC5)n[nH]4)cc(N4CCOCC4)n3)on2)cc1 [Example 604, N^4-(3-cyclopropyl-1H-pyrazol-5-yl)-N^2-{[3-(4-fluorophenyl)isoxazol-5-yl]methyl}-6-morpholin-4-ylpyrimidine-2,4-diamine] | – |
| – | – | < 0.05 | 0.05 to 0.5 | CN1CCN(c2cc(Nc3cc(C4CC4)n[nH]3)nc(NCc3cc(-c4ccc(F)cc4)no3)n2)CC1 [Example 605, N^4-(3-cyclopropyl-1H-pyrazol-5-yl)-N^2-{[3-(4-fluorophenyl)isoxazol-5-yl]methyl}-6-(4-methylpiperazin-1-yl)pyrimidine-2,4-diamine] | – |
| – | – | < 0.05 | 0.05 to 0.5 | Fc1ccc(-c2cc(CNc3nc(Nc4cc(C5CC5)n[nH]4)cc(OCCN4CCOCC4)n3)on2)cc1 [Example 606, N^4-(3-cyclopropyl-1H-pyrazol-5-yl)-N^2-{[3-(4-fluorophenyl)isoxazol-5-yl]methyl}-6-[(2-morpholin-4-ylethyl)oxy]pyrimidine-2,4-diamine] | – |
| – | – | < 0.05 | 0.05 to 0.5 | CC(C)c1cc(Nc2cc(N3CCOCC3)nc(NCc3cc(-c4ccc(F)cc4)no3)n2)[nH]n1 [Example 607, N^2-{[3-(4-fluorophenyl)isoxazol-5-yl]methyl}-N^4-[3-(1-methylethyl)-1H-pyrazol-5-yl]-6-morpholin-4-ylpyrimidine-2,4-diamine] | – |
| – | – | < 0.05 | 0.05 to 0.5 | CC(C)c1cc(Nc2cc(N3CCN(C)CC3)nc(NCc3cc(-c4ccc(F)cc4)no3)n2)[nH]n1 [Example 608, N^2-{[3-(4-fluorophenyl)isoxazol-5-yl]methyl}-N^4-[3-(1-methylethyl)-1H-pyrazol-5-yl]-6-(4-methylpiperazin-1-yl)pyrimidine-2,4-diamine] | – |
| – | – | < 0.05 | 0.05 to 0.5 | CC(C)c1cc(Nc2cc(OCCN3CCOCC3)nc(NCc3cc(-c4ccc(F)cc4)no3)n2)[nH]n1 [Example 609] | – |
| – | – | < 0.05 | 0.05 to 0.5 | Cc1cc(Nc2cc(C3CC3)[nH]n2)nc(NCc2cc(-c3cccnc3)no2)n1 [Example 610, N^4-(5-cyclopropyl-1H-pyrazol-3-yl)-6-methyl-N^2-[(3-pyridin-3-ylisoxazol-5-yl)methyl]pyrimidine-2,4-diamine] | – |
| – | – | < 0.05 | 0.05 to 0.5 | CN1CCN(c2cc(Nc3cc(C4CC4)[nH]n3)nc(NCc3cc(-c4ccccn4)no3)n2)CC1 [Example 611, N^4-(5-cyclopropyl-1H-pyrazol-3-yl)-6-(4-methylpiperazin-1-yl)-N^2-[(3-pyridin-2-ylisoxazol-5-yl)methyl]pyrimidine-2,4-diamine] | – |

Reference: US8211929B2, “Pyrimidine derivatives as kinase modulators and method of use” (Exelixis, Inc., priority 2004, dated 2012)
